How the values were obtained:
[1] = target: T1, Recombinant full-length human IDO1 (Homo sapiens, UniProt P14902); experiment: IDO1 enzymatic assay (NFK quantified by LCMS); assay type: biochemical; conditions: 2 nM enzyme, 5 μM L-tryptophan, pH6.5, 30 minutes pre-incubation at RT; mean values when measured multiple times; read-out: hIDO activity (IC50 in nM)
T1 construct: Recombinant full-length human IDO1 with a N-terminal hexahistidine tag; hexahistidine (His6) (N); made in house; host or cells: E. coli
Summary of the method: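 His-tagged human IDO1 (2 nM) in pH 6.5 phosphate buffer with ascorbate, methylene blue and catalase was preincubated with compound (10 μM–0.5 nM, 0.6% DMSO) for 30 min at RT. The reaction then ran with 5 μM L-Trp for 30 min. NFK was measured by LCMS against a d5-Trp standard, and IC50 was obtained by four-parameter fit.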

[2] = target: T2, Recombinant human TDO comprising amino acids 19-407 (Homo sapiens, UniProt P48775); experiment: TDO2 enzymatic assay (NFK quantified by LCMS); assay type: biochemical; conditions: 15 nM enzyme, 200 μM L-tryptophan, pH7, 30 minutes pre-incubation at RT; mean values when measured multiple times; read-out: hTDO activity (IC50 in nM)
T2 construct: Recombinant human TDO comprising amino acids 19-407 with a N-terminal hexahistidine tag; hexahistidine (His6) (N); made in house; host or cells: E. coli
Summary of the method: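 NFK formed over 30 min at RT from 200 μM L-tryptophan was measured by LCMS, normalized to d5-tryptophan, after compound (0.5 nM–10 μM, duplicates, 0.6% DMSO) was preincubated 30 min with 15 nM recombinant His-tagged TDO 19-407 in phosphate buffer pH 7. IC50 from four-parameter logistic fit; repeats averaged.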

T1 sequence (P14902 whole entry): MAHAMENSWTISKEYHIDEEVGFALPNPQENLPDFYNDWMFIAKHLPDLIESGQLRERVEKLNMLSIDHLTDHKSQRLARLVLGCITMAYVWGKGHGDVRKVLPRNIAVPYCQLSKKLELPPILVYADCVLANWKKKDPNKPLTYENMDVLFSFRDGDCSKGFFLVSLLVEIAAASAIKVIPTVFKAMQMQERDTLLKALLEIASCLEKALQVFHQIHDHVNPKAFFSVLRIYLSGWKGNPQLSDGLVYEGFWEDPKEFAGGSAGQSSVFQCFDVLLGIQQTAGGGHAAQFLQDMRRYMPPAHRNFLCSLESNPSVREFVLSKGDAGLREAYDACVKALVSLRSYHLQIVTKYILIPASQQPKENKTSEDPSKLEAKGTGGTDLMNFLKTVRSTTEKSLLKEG
T2 sequence (P48775 19-406 limits assumed): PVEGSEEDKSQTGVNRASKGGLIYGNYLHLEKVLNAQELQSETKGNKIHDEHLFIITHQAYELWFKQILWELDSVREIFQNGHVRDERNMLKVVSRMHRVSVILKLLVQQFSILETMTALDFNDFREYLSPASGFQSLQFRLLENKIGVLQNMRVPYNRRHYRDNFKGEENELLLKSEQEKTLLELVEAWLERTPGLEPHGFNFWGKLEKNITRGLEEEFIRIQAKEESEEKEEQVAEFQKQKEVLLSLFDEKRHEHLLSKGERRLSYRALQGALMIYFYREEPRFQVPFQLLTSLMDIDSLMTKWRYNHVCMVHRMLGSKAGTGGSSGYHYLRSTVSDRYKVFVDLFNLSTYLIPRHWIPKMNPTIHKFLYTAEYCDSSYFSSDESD

Row | SMILES | IC50 [1] | IC50 [2]
1 | COc1ccc(-n2cc(C(O)c3c(C4(F)CC4)sc4cncn34)nn2)cc1 (racemic) [Example 92, rac-[2-(1-Fluoro-cyclopropyl)-imidazo[5,1-b]thiazol-3-yl]-[1-(4-methoxy-phenyl)-1H-[1,2,3]triazol-4-yl]-methanol] | 32.7 nM | > 10200 nM
2 | Cc1sc2cncn2c1C(O)c1cnn(-c2ccccc2)c1 (racemic) [Example 96, rac-(2-Methyl-imidazo[5,1-b]thiazol-3-yl)-(1-phenyl-1H-pyrazol-4-yl)-methanol] | 163 nM | 2530 nM
3 | COc1ccc(-n2cc(C(O)c3c(C)sc4cncn34)cn2)cc1 (racemic) [Example 97, rac-[1-(4-Methoxy-phenyl)-1H-pyrazol-4-yl]-(2-methyl-imidazo[5,1-b]thiazol-3-yl)-methanol] | 121 nM | 1940 nM
4 | Cc1sc2cncn2c1C(O)c1cnn(-c2ccccc2)c1C (racemic) [Example 98, rac-(2-Methyl-imidazo[5,1-b]thiazol-3-yl)-(5-methyl-1-phenyl-1H-pyrazol-4-yl)-methanol] | 186 nM | 864 nM
5 | COc1ccc(-n2cc(C(O)c3c(C4CC4)sc4cncn34)cn2)cc1 (racemic) [Example 99, rac-(2-Cyclopropyl-imidazo[5,1-b]thiazol-3-yl)-[1-(4-methoxy-phenyl)-1H-pyrazol-4-yl]-methanol] | 31.8 nM | 3570 nM
6 | OC(c1cnn(-c2ccccc2)c1)c1c(C2CC2)sc2cncn12 (racemic) [Example 100, rac-(2-Cyclopropyl-imidazo[5,1-b]thiazol-3-yl)-(1-phenyl-1H-pyrazol-4-yl)-methanol] | 41.8 nM | 3350 nM
7 | Cc1c(C(O)c2c(C3CC3)sc3cncn23)nnn1-c1ccccc1 (racemic) [Example 101, rac-(2-Cyclopropyl-imidazo[5,1-b]thiazol-3-yl)-(5-methyl-1-phenyl-1H-[1,2,3]triazol-4-yl)-methanol] | 17 nM | 7150 nM
8 | O=C(c1ccc(-n2cc(C(O)c3c(C4CC4)sc4cncn34)nn2)cc1)N1CCOCC1 (racemic) [Example 103, rac-(4-{4-[(2-Cyclopropyl-imidazo[5,1-b]thiazol-3-yl)-hydroxy-methyl]-[1,2,3]triazol-1-yl}-phenyl)-morpholin-4-yl-methanone] | 78.1 nM | > 10200 nM
9 | O=C(Nc1ccc(-n2cc(C(O)c3c(C4CC4)sc4cncn34)nn2)cc1)N1CCOCC1 (racemic) [Example 104, rac-Morpholine-4-carboxylic acid (4-{4-[(2-cyclopropyl-imidazo[5,1-b]thiazol-3-yl)-hydroxy-methyl]-[1,2,3]triazol-1-yl}-phenyl)-amide] | 30.6 nM | > 10200 nM
10 | COCCCNC(=O)c1ccc(-n2cc(C(O)c3c(C4CC4)sc4cncn34)nn2)cc1 (racemic) [Example 106, rac-4-{4-[(2-Cyclopropyl-imidazo[5,1-b]thiazol-3-yl)-hydroxy-methyl]-[1,2,3]triazol-1-yl}-N-(3-methoxy-propyl)-benzamide] | 19.6 nM | > 10200 nM

Second part, the compound after the results:

Row | IC50 [1] | IC50 [2] | SMILES
11 | 18.3 nM | > 10200 nM | CC(=O)Nc1ccc(-n2cc(C(O)c3c(C4CC4)sc4cncn34)nn2)cc1 (racemic) [Example 95, rac-N-(4-{4-[(2-Cyclopropyl-imidazo[5,1-b]thiazol-3-yl)-hydroxy-methyl]-[1,2,3]triazol-1-yl}-phenyl)-acetamide]
12 | 23.2 nM | > 10200 nM | COCCNC(=O)c1ccc(-n2cc(C(O)c3c(C4CC4)sc4cncn34)nn2)cc1 (racemic) [Example 102, rac-4-{4-[(2-Cyclopropyl-imidazo[5,1-b]thiazol-3-yl)-hydroxy-methyl]-[1,2,3]triazol-1-yl}-N-(2-methoxy-ethyl)-benzamide]
13 | 22.1 nM | > 10200 nM | O=C(NC1CC1)c1ccc(-n2cc(C(O)c3c(C4CC4)sc4cncn34)nn2)cc1 (racemic) [Example 105, rac-N-Cyclopropyl-4-{4-[(2-cyclopropyl-imidazo[5,1-b]thiazol-3-yl)-hydroxy-methyl]-[1,2,3]triazol-1-yl}-benzamide]
14 | 16.6 nM | > 10200 nM | CCNC(=O)c1ccc(-n2cc(C(O)c3c(C4CC4)sc4cncn34)nn2)cc1 (racemic) [Example 107, rac-4-{4-[(2-Cyclopropyl-imidazo[5,1-b]thiazol-3-yl)-hydroxy-methyl]-[1,2,3]triazol-1-yl}-N-ethyl-benzamide]
15 | 10 nM | > 10200 nM | N#CCCNC(=O)c1ccc(-n2cc(C(O)c3c(C4CC4)sc4cncn34)nn2)cc1 (racemic) [Example 108, rac-N-(2-Cyano-ethyl)-4-{4-[(2-cyclopropyl-imidazo[5,1-b]thiazol-3-yl)-hydroxy-methyl]-[1,2,3]triazol-1-yl}-benzamide]
16 | 24 nM | 7110 nM | NC(=O)Nc1ccc(-n2cc(C(O)c3c(C4CC4)sc4cncn34)nn2)cc1 (racemic) [Example 109, rac-(4-{4-[(2-Cyclopropyl-imidazo[5,1-b]thiazol-3-yl)-hydroxy-methyl]-[1,2,3]triazol-1-yl}-phenyl)-urea]
17 | 13.1 nM | 4290 nM | CCc1sc2cncn2c1C(O)c1cn(-c2ccc(NC(C)=O)cc2)nn1 (racemic) [Example 110, rac-N-(4-{4-[(2-Ethyl-imidazo[5,1-b]thiazol-3-yl)-hydroxy-methyl]-[1,2,3]triazol-1-yl}-phenyl)-acetamide]
18 | 28.8 nM | > 10200 nM | CCc1sc2cncn2c1C(O)c1cn(-c2ccc(C(=O)NC)cc2)nn1 (racemic) [Example 111, rac-4-{4-[(2-Ethyl-imidazo[5,1-b]thiazol-3-yl)-hydroxy-methyl]-[1,2,3]triazol-1-yl}-N-methyl-benzamide]
19 | 45.6 nM | 6220 nM | CCc1sc2cncn2c1C(O)c1cn(-c2ccc3[nH]c(=O)[nH]c3c2)nn1 (racemic) [Example 112, rac-5-{4-[(2-Ethyl-imidazo[5,1-b]thiazol-3-yl)-hydroxy-methyl]-[1,2,3]triazol-1-yl}-1,3-dihydro-benzoimidazol-2-one]
20 | 14.3 nM | 7720 nM | CCNC(=O)Nc1ccc(-n2cc(C(O)c3c(CC)sc4cncn34)nn2)cc1OC (racemic) [Example 113, rac-1-Ethyl-3-(4-{4-[(2-ethyl-imidazo[5,1-b]thiazol-3-yl)-hydroxy-methyl]-[1,2,3]triazol-1-yl}-2-methoxy-phenyl)-urea]
21 | 108 nM | > 10200 nM | CCc1sc2cncn2c1C(O)c1cn(-c2ccc(C(=O)N(C)C)cc2)nn1 (racemic) [Example 114, rac-4-{4-[(2-Ethyl-imidazo[5,1-b]thiazol-3-yl)-hydroxy-methyl]-[1,2,3]triazol-1-yl}-N,N-dimethyl-benzamide]
22 | 12.7 nM | > 10200 nM | CCc1sc2cncn2c1C(O)c1cn(-c2ccc(C(=O)NCCCO)cc2)nn1 (racemic) [Example 115, rac-4-{4-[(2-Ethyl-imidazo[5,1-b]thiazol-3-yl)-hydroxy-methyl]-[1,2,3]triazol-1-yl}-N-(3-hydroxy-propyl)-benzamide]
23 | 12.3 nM | 5210 nM | CCc1sc2cncn2c1C(O)c1cn(-c2ccc(C(N)=O)cc2)nn1 (racemic) [Example 116, rac-4-{4-[(2-Ethyl-imidazo[5,1-b]thiazol-3-yl)-hydroxy-methyl]-[1,2,3]triazol-1-yl}-benzamide]
